Columns and labels:
[1] = pH of the compound as Mn plant nutrient source in water; cited from earlier work
[2] = at 25° C.
Text: Manganese thiosulfate, also referred to herein as “MnTS”, is a liquid source of Mn with up to 20% concentration.

Row | Compound | respective pH [1] | Mn concentration of saturated solution of MnTS (MnTS prepared by salt exchange of MnSO4 with calcium thiosulfate, evaporated to point of crystal formation, percent by weight) [% Mn] | Solubility of MnTS (saturated solution) (saturated solution, corresponding to measured Mn, percent by weight) [% MnTS] | Maximum solubility of MnTS (solid from evaporation redissolved in aqueous solution at ambient temperature, calculated from Mn concentration) | pH of solution of manganese thiosulfate [2]
1 | O=S(=O)([O-])[O-].[Mn+2] [MnSO4, manganese sulfate] | 2.8 |  |  |  | 
2 | manganese carbonate [MnCO3] | 6.4 |  |  |  | 
3 | manganese thiosulfate [MnTS] |  | 5.85 | ~17 | 17-18% | 5-6

Source: patent publication US7914763B1, “Process and apparatus for preparing manganese thiosulfate (MnTS) solution” (Tessenderlo Kerley, Inc., priority 2010, dated 2011)
